This is an account of results in PubChem BioAssay (NCI).

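Briefly, cells in 96-well plates were exposed to five compound concentrations for 48 h, and endpoints were estimated by linear interpolation. At the GI50, growth is halved. Definition used: TGI = concentration required for complete inhibition of growth.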 Where only a bound is given, the exact number is not on record here.

Experiment in all cases: NCI tumour cell line growth inhibition, 48 h
In test [1] the test system is NCI-H522 lung.
Test [2] has as its system OVCAR-8 ovarian.
Test [3] relates to MOLT-4 leukemia.
Test [4] has as its system SF-295 CNS.
The subject of test [5] is SNB-75 CNS.
For test [6], the system named is SK-MEL-5 melanoma.
In test [7] the test system is A549 NSCLC.
The subject of test [8] is KM12 colon.
Test [9] relates to SK-OV-3 ovarian.
In test [10] the test system is OVCAR-3 ovarian.

Take `CCN(/N=C1\CC2C=CCN(C2)C(=O)Cc2c1[nH]c1ccccc21)S(=O)(=O)c1ccc(C)cc1` (stereo not given): the TGI in [1], in [2], in test [3], in test [4], in test [5] and in test [6] was greater than 100 µM throughout. The TGI in test [7] and in test [8] was greater than 100 µM throughout.

For `CCCCCCCCCCCCCCCCCCOc1ccccc1COP(=O)(O)OOCC[N+](C)(C)C`, the GI50 in test [1] is 1.73 µM; in test [9] it was 2.38 µM; in test [10], 0.993 µM; in [2], 1.41 µM; in [4], 1.23 µM; in test [5], 0.96 µM. In addition, the figures for the GI50 in test [6], in [7] and in test [8] were 0.813 µM, 5.5 µM and 1.01 µM, respectively. Also, the TGI worked out at 13.1 µM in test [1]; 10.6 µM in test [9]; 2.56 µM in test [10]; 9.22 µM in test [2]; 4.32 µM in [4]; 3.51 µM in [5]. For the same compound, the TGI stood at 1.5 µM in [6], 23.6 µM in [7] and 2.12 µM in [8].

For `COc1ccc(/C=C/C(=O)CCN2CCN(CCC(=O)/C=C/c3ccc(OC)cc3)CC2)cc1`, the TGI in [9] was 24.1 µM; in test [10], 28.8 µM; in [2] it was 42.4 µM; in [3] it was greater than 100 µM; in [4], 20.8 µM; in test [5], 58.6 µM. The results for the TGI in test [6], in test [7] and in test [8] were 32 µM, 49.5 µM and 23 µM, respectively.

For `CC(C)C(/C=C/c1ccc(Cl)cc1)=N\NC(=O)N/N=C(/C=C/c1ccc(Cl)cc1)C(C)C`, the TGI is 93.1 µM in [9]; 35.8 µM in test [10]; 38 µM in [2]; greater than 100 µM in [3]; 45.2 µM in test [4]; 39 µM in [5]. The TGI in test [6] is greater than 100 µM; in [7], 41.5 µM; in [8], greater than 100 µM.

As for `COc1ccc(Nc2cc(=O)[nH]c(=O)[nH]2)cc1`, the TGI in test [10], in test [2], in test [3], in test [4], in test [5] and in test [6] was greater than 100 µM each time. In addition, the TGI in test [7] and in [8] was greater than 100 µM throughout.

Consider `CC1(C)N([O-])[N+](=O)C1(C)O` (stereo not given), for which the TGI in test [1], in test [9], in test [10], in test [2], in test [3] and in test [5] was greater than 100 µM throughout. For the same compound, the TGI in [6], in [7] and in test [8] was greater than 100 µM in each case.

`O[C@@]12Cc3c([nH]c4ccccc34)[C@@H]3Oc4c(-c5ccccc5)ccc5c4[C@@]31CCN(CC1CC1)[C@@H]2C5`: the TGI in test [1] was 3.36 µM; in [9] it was 10.7 µM; in [10], 3.04 µM; in test [2] it was 5.01 µM; in test [3] it was 11 µM; in test [4], 3.5 µM. For the same compound, the TGI worked out at 3.25 µM in test [6], 3.53 µM in [7] and 3.35 µM in test [8].

Regarding `COC(=O)C1Cc2cc3c(cc2C1)CCC3`, the TGI in test [9], in test [10], in test [2], in [3], in test [4] and in [5] was greater than 100 µM each time. Further, the TGI in [6], in [7] and in test [8] was greater than 100 µM in each case.

With `CC(C)C(CCOS(=O)(=O)O)CCC(C)[C@H]1[C@@H](O)C(O)C2[C@]3(O)C[C@@H](O)C4(O)C[C@@H](O)CC[C@]4(C)C3CC[C@@]21C` (stereo not given in full), the TGI in [1], in [9], in test [10], in [2], in test [4] and in test [6] was greater than 100 µM in each case. Further, the TGI in test [7] and in test [8] was greater than 100 µM each time.

As for `C[C@@H](c1ccccc1)N1CO[C@@]2(C#Cc3ccc4c(c3)OCO4)CCC[C@@H]12`, the TGI in [9] amounted to 34.5 µM; in test [2] it was 27 µM; in [3] it was 48.2 µM; in test [4], 28.1 µM; in test [5] it was 27.9 µM; in test [6], 25.8 µM. Further, the TGI is 29.6 µM in test [7] and 34.7 µM in [8].

As for `CC1CC(=O)Nc2ccccc2N1C(=O)C1CC1` (stereo not given), the TGI in test [1], in [9], in test [10], in test [2], in test [3] and in test [4] was greater than 100 µM each time. The TGI in [6], in test [7] and in [8] was greater than 100 µM each time.

With `COC(=O)c1c2c(cc3c1CC1(C3)Cc3cc4c(c(C(=O)OC)c3C1)CCC4)CCC2`, the TGI in [1], in test [9], in [10], in [2], in test [3] and in [4] was greater than 100 µM throughout. For the same compound, the TGI in test [6], in test [7] and in [8] was greater than 100 µM in each case.

`COCCCNc1c2ccccc2nc2ccccc12`: the TGI was 6.8 µM in test [1]; 12.4 µM in test [9]; 7.55 µM in test [10]; 15.5 µM in test [2]; greater than 100 µM in test [3]; 14.9 µM in test [4]. For the same compound, the TGI in test [6] came to 4.51 µM; in test [7], 14 µM; in test [8], 24.6 µM.

In the case of `O=C1c2ccccc2C(=O)N1NC1=NCCN1`, the TGI in test [1], in [9], in test [10], in test [2], in test [3] and in test [4] was greater than 100 µM each time. In addition, the TGI in test [6], in test [7] and in test [8] was greater than 100 µM throughout.

With `CC/C=C\C=C/C(=O)N/C=C/CCC`, the TGI in test [1] was 36 µM; in test [9], greater than 100 µM; in test [10], greater than 100 µM; in test [2], greater than 100 µM; in test [3] it was 95.6 µM; in test [5], greater than 100 µM. Further, the TGI in test [7] and in [8] was greater than 100 µM throughout.

With `C/C(=N\O)c1cccc(Nc2c3ccccc3nc3occc23)c1`, the TGI in [1] was 4.83 µM; in test [9], 36.8 µM; in [10] it was 80.1 µM; in test [2], 83 µM; in test [3], greater than 100 µM; in [4], 26.7 µM. The TGI was greater than 100 µM in [6], 58.5 µM in test [7] and greater than 100 µM in [8].

Turning to `COc1ccc(-c2cc(=O)c3cc(O)ccc3o2)c(OC)c1OC`, the TGI in test [1] is 64.6 µM; in test [9] it was 99.1 µM; in test [10] it was 46.3 µM; in test [4] it was 69.2 µM; in test [5], 76.5 µM; in [7] it was greater than 100 µM. In [8], this compound yielded a TGI of 87.7 µM.

In the case of `Nc1ncnc2c1ccn2-c1cccc(NC(=O)c2ccc(N3CCOCC3)c(C(F)(F)F)c2)c1`, the GI50 in test [1] is 1.74 µM; in test [10], 3.04 µM; in test [2] it was 2.91 µM; in test [3], 3.05 µM; in test [4], 2.44 µM; in [5] it was 1.31 µM. Further, the GI50 is 2.56 µM in test [6], 3.41 µM in [7] and 2.69 µM in test [8]. Moreover, the TGI in test [1] is 5.2 µM; in test [10], 11.4 µM; in [2] it was 9.62 µM; in [3], 20.1 µM; in test [4] it was 7.31 µM; in test [5], 9.02 µM. The results for the TGI in [6], in test [7] and in test [8] were 13.2 µM, 15.2 µM and 10.4 µM, respectively.

For the compound `S=C1NNC2(C(=S)N1)c1ccccc1-c1ccccc12`, the TGI in test [9], in [2], in [3], in test [5], in test [6] and in [7] was greater than 10 µM each time. The TGI in test [8] was greater than 10 µM.

As for `CCOc1cc2c(cc1O)C(=O)C[C@@H]1[C@@H]2CC[C@]2(C)[C@@H](O)CC[C@@H]12`, the TGI was 3.2 µM in [1]; greater than 73.6 µM in test [9]; 1.7 µM in test [10]; 27.1 µM in test [2]; greater than 31.7 µM in test [3]; 9.52 µM in [4]. In addition, the TGI in test [6] was 7.11 µM; in test [7] it was greater than 100 µM; in test [8], 29.6 µM.

Regarding `C=C1CN2CCc3c([nH]c4ccccc34)C2CC1CC(=O)N(C)C` (stereo not given), the TGI in [1], in test [9], in test [10], in test [2], in test [3] and in test [4] was greater than 309 µM each time. Also, the TGI in [6], in test [7] and in test [8] was greater than 309 µM throughout.

Turning to `COc1cc(N(CCCl)CCCl)ccc1/C=N\NC(=O)c1cccnc1`, the GI50 in test [1] was 21.8 µM; in test [10] it was 21 µM; in test [2], 26.5 µM; in [3] it was 22.3 µM; in test [4] it was 4.31 µM; in test [5], 37.1 µM. The GI50 is 16.4 µM in test [6], 12.1 µM in test [7] and 33.6 µM in test [8]. In addition, the TGI in test [1] was 65.8 µM; in test [10] it was 50.4 µM; in test [2], greater than 100 µM; in test [3], 67.4 µM; in [4] it was 35.7 µM; in test [5], greater than 100 µM. Further, the TGI in test [6] is 36 µM; in [7] it was greater than 100 µM; in test [8], greater than 100 µM.

With `CN1CCN(c2n[nH]c(=O)c3c2nnn3C2CCCCC2)CC1`, the TGI in test [1], in test [10], in test [2], in [3], in test [4] and in test [5] was greater than 100 µM in each case. The TGI in test [6], in test [7] and in test [8] was greater than 100 µM in each case.

As to `COC(=O)C1=CCC2c3[nH]c4ccccc4c3CCN2C1` (stereo not given), the TGI in [1], in [9], in [10], in test [2], in test [3] and in test [4] was greater than 354 µM in each case. The TGI in test [6], in test [7] and in test [8] was greater than 354 µM throughout.

On to `CC(C)=CCc1cc(/C=C/C(=O)O)cc(CC=C(C)C)c1O`, for which the TGI in [1], in test [9], in test [10], in [2], in test [3] and in test [4] was greater than 100 µM in each case. The TGI in [6], in test [7] and in [8] was greater than 100 µM throughout.

As to `Cn1c(=S)[nH]c(N)c(Cc2ccccc2)c1=O`, the TGI in test [9], in [10], in test [2], in test [3], in [4] and in test [5] was greater than 100 µM each time. The TGI in test [6], in test [7] and in test [8] was greater than 100 µM throughout.

`Cc1cc(N=Cc2c(CO)cnc(C)c2O)c(N=Cc2c(CO)cnc(C)c2O)cc1C`: the TGI in [1], in [9], in test [10], in test [2], in [4] and in [5] was greater than 100 µM each time. Besides, the TGI in [6], in test [7] and in test [8] was greater than 100 µM each time.

Consider `CCCCCCc1cc2cc(C(=O)Nc3cccc(F)c3)c(=N)oc2cc1O`, for which the TGI in [1] was 5.33 µM; in test [9], 13.3 µM; in test [10] it was 23.7 µM; in test [2], 3.56 µM; in test [3], 7.69 µM; in [4], 15.9 µM. Also, the results for the TGI in test [6], in [7] and in [8] were 2.85 µM, 13.4 µM and 8.3 µM, respectively.
